Values after ≈ are worked out from the molar mass of the structure shown. Active and inactive are the calls of the source. The calls are words filed in the database; no cut-off is given here.
How the values were obtained:
Pseudomonas aeruginosa [1] = assay: Bactericidal activity against Pseudomonas aeruginosa ATCC 10145 at 90 uM incubated for 24 hrs by microdilution assay; format: functional, organism-based
Acinetobacter baumannii [2] = assay: Bactericidal activity against Acinetobacter baumannii ATCC 19606 at 90 uM incubated for 24 hrs by microdilution assay; format: functional, organism-based; details: ATCC 19606 = CIP 70.34 = JCM 6841
[3] = tested on: Enterobacter cloacae subsp. cloacae; assay: Bactericidal activity against Enterobacter cloacae ATCC 13047 at 90 uM incubated for 24 hrs by microdilution assay; format: functional
Enterococcus faecium [4] = assay: Bactericidal activity against Enterococcus faecium C15 incubated for 24 hrs by microdilution assay; format: functional; details: C15, 24 h
Pseudomonas aeruginosa [5] = assay: Antibacterial activity against Pseudomonas aeruginosa ATCC 10145 at 90 uM incubated for 24 hrs by microdilution assay; format: functional, organism-based
[6] = Selectivity ratio of IC50 for human HaCaT cells to IC50 for human HDF cells by CellTiter 96 aqueous one solution assay
Acinetobacter baumannii [7] = assay: Antibacterial activity against Acinetobacter baumannii ATCC 17978 at 90 uM incubated for 24 hrs by microdilution assay; format: functional, organism-based
Pseudomonas aeruginosa [8] = assay: Antibacterial activity against Pseudomonas aeruginosa ATCC 49189 at 90 uM incubated for 24 hrs by microdilution assay; format: functional, organism-based
Klebsiella pneumoniae [9] = assay: Antibacterial activity against Klebsiella pneumoniae ATCC 13883 at 90 uM incubated for 24 hrs by microdilution assay; format: functional, organism-based
Klebsiella pneumoniae [10] = assay: Antibacterial activity against Klebsiella pneumoniae ATCC 12657 at 90 uM incubated for 24 hrs by microdilution assay; format: functional, organism-based
Staphylococcus aureus [11] = assay: Antibacterial activity against Staphylococcus aureus ATCC 29247 incubated for 24 hrs by microdilution assay; format: functional
HaCaT = assay: Cytotoxicity against human HaCaT cells assessed as reduction in cell viability incubated for 4 days by CellTiter 96 aqueous one solution assay; format: cell-based; details: 96 h
Staphylococcus aureus [12] = assay: Bactericidal activity against Staphylococcus aureus ATCC 29247 incubated for 24 hrs by microdilution assay; format: functional; details: ATCC 29247, 24 h
Enterococcus faecium [13] = assay: Bactericidal activity against Enterococcus faecium ATCC 35667 incubated for 24 hrs by microdilution assay; format: functional; details: ATCC 35667, 24 h
Enterococcus faecium [14] = assay: Antibacterial activity against Enterococcus faecium ATCC 35667 incubated for 24 hrs by microdilution assay; format: functional
Enterococcus faecium [15] = assay: Antibacterial activity against Enterococcus faecium C15 incubated for 24 hrs by microdilution assay; format: functional
Staphylococcus aureus [16] = assay: Bactericidal activity against Staphylococcus aureus ATCC 25923 incubated for 24 hrs by microdilution assay; format: functional; details: ATCC 25923, 24 h
Klebsiella pneumoniae [17] = assay: Bactericidal activity against Klebsiella pneumoniae ATCC 12657 at 90 uM incubated for 24 hrs by microdilution assay; format: functional, organism-based
NHDF = assay: Cytotoxicity against human HDF cells assessed as reduction in cell viability incubated for 7 days by CellTiter 96 aqueous one solution assay; format: functional, cell-based; details: 168 h
Klebsiella pneumoniae [18] = assay: Bactericidal activity against Klebsiella pneumoniae ATCC 13883 at 90 uM incubated for 24 hrs by microdilution assay; format: functional, organism-based
Klebsiella aerogenes [19] = assay: Bactericidal activity against Enterobacter aerogenes ATCC 13048 at 90 uM incubated for 24 hrs by microdilution assay; format: functional
Pseudomonas aeruginosa [20] = assay: Bactericidal activity against Pseudomonas aeruginosa ATCC 49189 at 90 uM incubated for 24 hrs by microdilution assay; format: functional, organism-based
Acinetobacter baumannii [21] = assay: Antibacterial activity against Acinetobacter baumannii ATCC 19606 at 90 uM incubated for 24 hrs by microdilution assay; format: functional, organism-based; details: ATCC 19606 = CIP 70.34 = JCM 6841
Acinetobacter baumannii [22] = assay: Bactericidal activity against Acinetobacter baumannii ATCC 17978 at 90 uM incubated for 24 hrs by microdilution assay; format: functional, organism-based
Staphylococcus aureus [23] = assay: Antibacterial activity against Staphylococcus aureus ATCC 25923 incubated for 24 hrs by microdilution assay; format: functional
Klebsiella aerogenes [24] = assay: Antibacterial activity against Enterobacter aerogenes ATCC 13048 at 90 uM incubated for 24 hrs by microdilution assay; format: functional
[25] = tested on: Enterobacter cloacae subsp. cloacae; assay: Antibacterial activity against Enterobacter cloacae ATCC 13047 at 90 uM incubated for 24 hrs by microdilution assay; format: functional
Enterococcus faecium [26] = assay: Bactericidal activity against Enterococcus faecium ATCC 35667 at 90 uM incubated for 24 hrs by microdilution assay; format: functional, organism-based
Enterococcus faecium [27] = assay: Bactericidal activity against Enterococcus faecium C15 up to 86.8 uM incubated for 24 hrs by microdilution assay; format: functional, organism-based
Staphylococcus aureus [28] = assay: Bactericidal activity against Staphylococcus aureus ATCC 29247 at 90 uM incubated for 24 hrs by microdilution assay; format: functional, organism-based
Enterococcus faecium [29] = assay: Bactericidal activity against Enterococcus faecium C15 at 90 uM incubated for 24 hrs by microdilution assay; format: functional, organism-based
Staphylococcus aureus [30] = assay: Bactericidal activity against Staphylococcus aureus ATCC 29247 up to 86.8 uM incubated for 24 hrs by microdilution assay; format: functional, organism-based
Enterococcus faecium [31] = assay: Bactericidal activity against Enterococcus faecium ATCC 35667 up to 86.8 uM incubated for 24 hrs by microdilution assay; format: functional, organism-based
Staphylococcus aureus [32] = assay: Bactericidal activity against Staphylococcus aureus ATCC 25923 up to 86.8 uM incubated for 24 hrs by microdilution assay; format: functional, organism-based
Staphylococcus aureus [33] = assay: Bactericidal activity against Staphylococcus aureus ATCC 25923 at 90 uM incubated for 24 hrs by microdilution assay; format: functional, organism-based

In the case of `C[C@@H]1CC[C@]2(OC1)O[C@H]1C[C@H]3[C@@H]4CC[C@H]5C[C@@H](O)C[C@@H](O[C@@H]6O[C@H](C)[C@H](O)[C@H](O)[C@H]6O)[C@]5(C)[C@H]4CC[C@]3(C)[C@H]1[C@@H]2C`, the Activity (Pseudomonas aeruginosa [1]) is reported as “inactive”, the Activity (Acinetobacter baumannii [2]) is reported as “inactive” and the Activity [3] is reported as “inactive”. The MBC (Enterococcus faecium [4]) was 43.2 µM (≈ 25 µg/mL), the Activity (Pseudomonas aeruginosa [5]) was “inactive” and the “Ratio IC50” value [6] was 3 - 11. For the same molecule, the Activity (Acinetobacter baumannii [7]) was “inactive”, the Activity (Pseudomonas aeruginosa [8]) was “inactive” and the Activity (Klebsiella pneumoniae [9]) was “inactive”. The Activity (Klebsiella pneumoniae [10]) was “inactive”, the MIC75 (Staphylococcus aureus [11]) was 21.6 µM (≈ 12.5 µg/mL) and the IC50 (HaCaT) was 18.2 µM. It also gave an MBC (Staphylococcus aureus [12]) of 21.6 µM (≈ 12.5 µg/mL), an MBC (Enterococcus faecium [13]) of 43.2 µM (≈ 25 µg/mL) and an MIC75 (Enterococcus faecium [14]) of 21.6 µM (≈ 12.5 µg/mL). For the same molecule, the MIC75 (Enterococcus faecium [15]) was 21.6 µM (≈ 12.5 µg/mL), the MBC (Staphylococcus aureus [16]) was 21.6 µM (≈ 12.5 µg/mL) and the Activity (Klebsiella pneumoniae [17]) was “inactive”. For the same molecule, the IC50 (NHDF) was 4.3 µM, the Activity (Klebsiella pneumoniae [18]) was “inactive” and the Activity (Klebsiella aerogenes [19]) was “inactive”. The Activity (Pseudomonas aeruginosa [20]) was “inactive”, the Activity (Acinetobacter baumannii [21]) was “inactive” and the Activity (Acinetobacter baumannii [22]) was “inactive”. The MIC75 (Staphylococcus aureus [23]) was 21.6 µM (≈ 12.5 µg/mL), the Activity (Klebsiella aerogenes [24]) was “inactive” and the Activity [25] was “inactive”.

For `C=C1CC[C@]2(OC1)O[C@H]1C[C@H]3[C@@H]4CC[C@H]5C[C@@H](O)C[C@@H](O[C@@H]6O[C@H](C)[C@H](O)[C@H](O)[C@H]6O)[C@]5(C)[C@H]4CC[C@]3(C)[C@H]1[C@@H]2C`, the Activity (Enterococcus faecium [26]) was “inactive”, the Activity (Pseudomonas aeruginosa [1]) was “inactive” and the Activity (Acinetobacter baumannii [2]) was “inactive”. For the same molecule, the Activity (Enterococcus faecium [27]) was “inactive”, the Activity [3] was “inactive” and the Activity (Pseudomonas aeruginosa [5]) was “inactive”. The “Ratio IC50” value [6] was 3 - 11, the Activity (Acinetobacter baumannii [7]) was “inactive” and the Activity (Pseudomonas aeruginosa [8]) was “inactive”. For the same molecule, the Activity (Klebsiella pneumoniae [9]) was “inactive”, the Activity (Klebsiella pneumoniae [10]) was “inactive” and the Activity (Staphylococcus aureus [28]) was “inactive”. For the same molecule, the MIC75 (Staphylococcus aureus [11]) was 5.4 µM (≈ 3.11 µg/mL), the IC50 (HaCaT) was 23.9 µM and the MIC75 (Enterococcus faecium [14]) was 21.7 µM (≈ 12.5 µg/mL). For the same molecule, the MIC75 (Enterococcus faecium [15]) was 21.7 µM (≈ 12.5 µg/mL), the Activity (Klebsiella pneumoniae [17]) was “inactive” and the Activity (Enterococcus faecium [29]) was “inactive”. For the same molecule, the IC50 (NHDF) was 4.2 µM, the Activity (Klebsiella pneumoniae [18]) was “inactive” and the Activity (Staphylococcus aureus [30]) was “inactive”. For the same molecule, the Activity (Klebsiella aerogenes [19]) was “inactive”, the Activity (Pseudomonas aeruginosa [20]) was “inactive” and the Activity (Enterococcus faecium [31]) was “inactive”. The Activity (Acinetobacter baumannii [21]) was “inactive”, the Activity (Acinetobacter baumannii [22]) was “inactive” and the Activity (Staphylococcus aureus [32]) was “inactive”. For the same molecule, the MIC75 (Staphylococcus aureus [23]) was 5.4 µM (≈ 3.11 µg/mL), the Activity (Staphylococcus aureus [33]) was “inactive” and the Activity (Klebsiella aerogenes [24]) was “inactive”. The Activity [25] was “inactive”.
